For assay [1], the system named is MCF7 cells (breast tumor cells) WT. The assay can be described thus: Test B: cell proliferation/viability assay (CellTiter-Glo) on MCF7 WT. The assay is classed as cell-based. To be noted: 7 days of compound exposure. Here is the method:
(§1) Test B: Cell Proliferation/Viability Assay on MCF7 (Breast Tumor Cells) WT and Mutants Cell Lines
(§2) Test B involves measuring the in vitro proliferation activity of the compounds of the invention by analyzing the viability of the tumor cells.
The measurements of the viability were made using a breast cancer cell viability assay as described hereunder. […]
(§3) MCF7 cells (ATCC) or MCF7 cells expressing (and dependent) on mutants estrogen receptor Tyr 537 Ser or Asp 538 Gly were seeded in 384 wells microplate at concentration of >999 cells/30 μL per well in red phenol free MEM medium containing 5% charcoal dextran striped FBS. The following day, 9 points serial 1:5 dilution of each compound were added to the cells in 20 μL at final concentrations ranging from 3-0.000001 μM. After 7 days of compound exposure, 50 μL of CellTiter-Glo (promega) was added to the cells and relative luminescence arbitrary units (RLUs) were determined in luminescence plate reader (Envision device). CellTiter-Glo was added to 50 μL medium without cells to determine the background signal.
(§4) The percent of viability of each sample was determined as follows: (RLU sample−RLU background/RLU untreated−RLU background)*100=% viability.
Background: In ATP-based viability assays light output follows the ATP content of the culture.

Assay [2] relates to MCF7 cells expressing mutant estrogen receptor Tyr 537 Ser. Kind of assay: Test B: cell proliferation/viability assay (CellTiter-Glo) on MCF7 Tyr 537 Ser mutant. The assay is classed as cell-based. To be noted: MCF7 cells expressing ER Tyr 537 Ser mutant, 7 days of compound exposure, read-out: proliferation MCF7 Y537S IC50.
Description: as §1, §2
(§5) The measurements of the viability were made using a breast cancer cell viability assay as described hereunder.
(§6) MCF7 cells expressing (and dependent) on mutants estrogen receptor Tyr 537 Ser or Asp 538 Gly were generated by transfection of MCF7 parental cells (ATCC) with expression vectors coding for different mutants of estrogen receptor Tyr 537 Ser or Asp 538 Gly. The cells were first selected by antibiotic (related to vector expression) and then selected for their growth dependence on estrogen receptor based on their ability to grow in vitro in absence of estradiol (parental cell line die in absence of estradiol).
as §3, §4

Assay [3] deals with ERα in MCF7 cells (Homo sapiens (Human), UniProt P03372). Kind of assay: Test C: estrogen receptor degradation activity, ERα in cell western assay in MCF7 cells. Format: cell-based. Conditions: for DC50: 4 hours post compound addition, ERα in cell western, read-out: Degradation IC50; for % Degradation at 3 μM: 4 hours, relative to fulvestrant. The gist of the method: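 MCF7 cells in phenol-red-free medium with 5% charcoal-stripped FBS received compound (9-point 1:5, 3-0.000018 μM) for 4 h, then were fixed. ERα immunostained (Alexa 488) and normalised to DNA (Syto-64), read as integrated fluorescence on an Acumen scanner.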

For assay [4], the system named is MCF7 cells expressing mutant estrogen receptor Asp 538 Gly. The assay can be described thus: Test B: cell proliferation/viability assay (CellTiter-Glo) on MCF7 Asp 538 Gly mutant. To be noted: MCF7 cells expressing ER Asp 538 Gly mutant, 7 days of compound exposure, read-out: proliferation MCF7 D538G IC50. The assay is classed as cell-based.
Description: as §1, §2, §5, §6, §3, §4

Assay [5] has as its target His6-ERα298-554 D538G mutant (ERα ligand-binding domain) (Homo sapiens (Human), UniProt P03372, D538G). Kind of assay: Test A: biochemical antagonist activity, LanthaScreen TR-FRET ERα coactivator assay, D538G mutant. To be noted: read-out: Antagonism D538G IC50. The essentials: (§7)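 His6-ERα LBD (0.5 nM) with 0.5 nM Tb-anti-His6 antibody, 250 nM PGC1a peptide and 3 nM (or 10 nM) estradiol in 100 mM potassium phosphate pH 7.4 with 5 mM DTT, incubated overnight at room temperature with compound.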
(TR-FRET usually uses a lanthanide donor and a delayed reading to cut background.)

Assay [6] concerns the target His6-ERα298-554 WT (ERα ligand-binding domain) (Homo sapiens (Human), UniProt P03372). Kind of assay: Test A: biochemical antagonist activity, LanthaScreen TR-FRET ERα coactivator assay, WT. Conditions: read-out: Antagonism WT IC50. The essentials:
as §7

Assay [7] addresses His6-ERα298-554 Y537S mutant (ERα ligand-binding domain) (Homo sapiens (Human), UniProt P03372, Y537S). Kind of assay: Test A: biochemical antagonist activity, LanthaScreen TR-FRET ERα coactivator assay, Y537S mutant. To be noted: read-out: Antagonism Y537S IC50. The gist of the method: as §7
The mark [8] stands for this setting: asterisk (*): protocol using 10 nM estradiol.

Read-outs that look alike come from different tables or passages of the source.

His6-ERα298-554 D538G mutant (ERα ligand-binding domain), sequence (P03372 298-554 D538G): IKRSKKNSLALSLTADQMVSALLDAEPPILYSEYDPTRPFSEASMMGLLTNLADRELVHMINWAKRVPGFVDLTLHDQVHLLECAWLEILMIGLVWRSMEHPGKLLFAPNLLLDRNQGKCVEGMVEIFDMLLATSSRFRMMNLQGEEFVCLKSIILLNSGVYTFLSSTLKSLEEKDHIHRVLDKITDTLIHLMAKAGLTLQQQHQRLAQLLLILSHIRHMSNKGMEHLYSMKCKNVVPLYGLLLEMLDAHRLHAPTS
ERα in MCF7 cells, sequence (P03372 whole entry): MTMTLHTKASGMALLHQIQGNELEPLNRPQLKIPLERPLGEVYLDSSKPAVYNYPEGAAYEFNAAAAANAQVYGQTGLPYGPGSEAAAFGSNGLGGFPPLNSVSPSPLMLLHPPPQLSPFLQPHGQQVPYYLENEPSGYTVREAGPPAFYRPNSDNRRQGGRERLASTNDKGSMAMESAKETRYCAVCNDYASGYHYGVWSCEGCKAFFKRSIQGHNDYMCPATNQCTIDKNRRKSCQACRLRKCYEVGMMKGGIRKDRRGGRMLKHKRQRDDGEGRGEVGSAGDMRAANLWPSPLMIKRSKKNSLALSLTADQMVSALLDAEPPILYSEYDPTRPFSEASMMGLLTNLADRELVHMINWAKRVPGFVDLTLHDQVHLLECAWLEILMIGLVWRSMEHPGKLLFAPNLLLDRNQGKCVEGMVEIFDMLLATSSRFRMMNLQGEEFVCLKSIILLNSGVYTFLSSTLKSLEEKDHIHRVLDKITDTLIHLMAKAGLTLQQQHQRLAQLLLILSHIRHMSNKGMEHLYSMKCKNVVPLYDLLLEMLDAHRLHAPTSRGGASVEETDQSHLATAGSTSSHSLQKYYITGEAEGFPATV
His6-ERα298-554 WT (ERα ligand-binding domain), sequence (P03372 298-554): as the sequence (P03372 298-554 D538G) above, with G241D counted along it
His6-ERα298-554 Y537S mutant (ERα ligand-binding domain), sequence (P03372 298-554 Y537S): as the sequence (P03372 298-554 D538G) above, with Y240S, G241D counted along it

On to `Cc1ccc(C2=C(c3ccc(O[C@H]4CCN(CCCF)C4)cc3)c3ccc(O)cc3[S+]([O-])C2)c(F)c1` (single isomer, unassigned) [Example 70], for which the IC50 was 64 nM in assay [1]; 478 nM in assay [2] (Homo sapiens, MCF7, 168 h); 97 nM in assay [4] (Homo sapiens, MCF7, 168 h); more than 4000 nM in assay [5] (setting [8]); 1660 nM in assay [6] (setting [8]); more than 4000 nM in assay [7] (setting [8]). For the same compound, the DC50 in assay [3] was 25 nM. Also, the “% Degradation at 3 μM” value in assay [3] was determined as 73%.

Take `Cc1ccc(C2=C(c3ccc(O[C@H]4CCN(CCCF)C4)cc3)c3ccc(O)cc3[S+]([O-])C2)c(F)c1` (single isomer, unassigned) [Example 71]: the IC50 in assay [1] is 12 nM; in assay [2], 414 nM; in assay [4], 88 nM; in assay [5] (setting [8]), more than 4000 nM; in assay [6] (setting [8]) it was 2740 nM; in assay [7] (setting [8]), more than 4000 nM. For the same compound, in assay [3], the DC50 amounted to 11 nM. Further, the “% Degradation at 3 μM” value in assay [3] amounted to 75%.

For `[O-][S+]1CCC(c2ccc(OC(F)(F)F)cc2)=C(c2ccc(O[C@H]3CCN(CCCF)C3)cc2)c2ccc(O)cc21` (single isomer, unassigned) [Example 226], the IC50 was 87 nM in assay [1]; more than 999 nM in assay [2]; 288 nM in assay [4]; more than 4000 nM in assay [5] (setting [8]); more than 4000 nM in assay [6] (setting [8]); more than 4000 nM in assay [7] (setting [8]). In assay [3], the DC50 stood at 103 nM. For the same compound, in assay [3], the “% Degradation at 3 μM” value was found to be 93%.

For the compound `[O-][S+]1CCC(c2ccc(OC(F)(F)F)cc2)=C(c2ccc(O[C@H]3CCN(CCCF)C3)cc2)c2ccc(O)cc21` (single isomer, unassigned) [Example 227], the IC50 in assay [1] is 6 nM; in assay [2], 134 nM; in assay [4], 9 nM; in assay [5] (setting [8]), 3330 nM; in assay [6] (setting [8]) it was 392 nM; in assay [7] (setting [8]), 3500 nM. For the same compound, the DC50 in assay [3] came to 4 nM. In addition, the “% Degradation at 3 μM” value in assay [3] came out at 90%.

Consider `CC1Cc2c([nH]c3ccccc23)C(c2c(F)cc(O[C@H]3CCN(CCCF)C3)cc2F)N1CC(C)(C)F` (single isomer, unassigned) [Example 256], for which the IC50 in assay [1] came to 0.1 nM; in assay [2] it was 2 nM; in assay [4], 0.7 nM; in assay [5] (setting [8]), 120 nM; in assay [6] (setting [8]), 6 nM; in assay [7] (setting [8]), 101 nM. For the same compound, in assay [3], the DC50 was 0.2 nM. Also, in assay [3], the “% Degradation at 3 μM” value amounted to 91%.

Turning to `CC1Cc2c([nH]c3ccccc23)C(c2c(F)cc(O[C@H]3CCN(CCCF)C3)cc2F)N1CC(C)(C)F` (single isomer, unassigned) [Example 257], the IC50 in assay [1] is 18 nM; in assay [2], 272 nM; in assay [4] it was 85 nM; in assay [5] (setting [8]), more than 4000 nM; in assay [6] (setting [8]), 3310 nM; in assay [7] (setting [8]), more than 4000 nM. In assay [3], the DC50 amounted to 37 nM. Also, the “% Degradation at 3 μM” value in assay [3] is on record as 87%.

Consider `Oc1ccc2c(c1)C(c1ccc(O[C@H]3CCN(CCCF)C3)cc1)=C(c1ccc(OC(F)(F)F)cc1Cl)CC2` [Example 7, 7-[2-chloro-4-(trifluoromethoxy)phenyl]-8-[4-[(3S)-1-(3-fluoropropyl)pyrrolidin-3-yl]oxyphenyl]-5,6-dihydronaphthalen-2-ol], for which the IC50 was 13 nM in assay [1] (Homo sapiens, MCF7, 168 h); more than 999 nM in assay [2] (Homo sapiens, MCF7, 168 h); 18 nM in assay [4] (Homo sapiens, MCF7, 168 h); more than 4000 nM in assay [5] (setting [8]); 1470 nM in assay [6] (setting [8]); more than 4000 nM in assay [7] (setting [8]). Besides, in assay [3], the DC50 was determined as 22 nM. In addition, the “% Degradation at 3 μM” value in assay [3] is listed as 82%.

Take `Oc1ccc2c(c1)C(c1ccc(O[C@H]3CCN(CCCF)C3)cc1)=C(c1ccc(OC(F)(F)F)cc1)CC2` [Example 8, 8-[4-[(3S)-1-(3-fluoropropyl)pyrrolidin-3-yl]oxyphenyl]-7-[4-(trifluoromethoxy)phenyl]-5,6-dihydronaphthalen-2-ol]: the IC50 in assay [1] (Homo sapiens, MCF7, 168 h) was more than 999 nM; in assay [2] (Homo sapiens, MCF7, 168 h) it was more than 999 nM; in assay [4] (Homo sapiens, MCF7, 168 h), more than 999 nM; in assay [5] (setting [8]) it was more than 4000 nM; in assay [6] (setting [8]), 1390 nM; in assay [7] (setting [8]) it was more than 4000 nM. Further, in assay [3], the DC50 turned out to be 25 nM. Besides, the “% Degradation at 3 μM” value in assay [3] was 84%.

For the compound `Oc1ccc2c(c1)C(c1ccc(O[C@H]3CCN(CCCF)C3)cc1)=C(c1ccc(SC(F)(F)F)cc1)CC2` [Example 9, 8-[4-[(3S)-1-(3-fluoropropyl)pyrrolidin-3-yl]oxyphenyl]-7-[4-(trifluoromethylsulfanyl)phenyl]-5,6-dihydronaphthalen-2-ol], the IC50 in assay [1] (Homo sapiens, MCF7, 168 h) is 44 nM; in assay [2] (Homo sapiens, MCF7, 168 h), more than 999 nM; in assay [4] (Homo sapiens, MCF7, 168 h), 47 nM; in assay [5] (setting [8]), more than 4000 nM; in assay [6] (setting [8]), 2290 nM; in assay [7] (setting [8]) it was more than 4000 nM. Moreover, the DC50 in assay [3] amounted to 28 nM. Moreover, in assay [3], the “% Degradation at 3 μM” value worked out at 79%.

With `Oc1ccc2c(c1)C(c1ccc(O[C@H]3CCN(CCCF)C3)cc1)=C(c1ccc(OC(F)(F)F)cc1F)CC2` [Example 10, 8-[4-[(3S)-1-(3-fluoropropyl)pyrrolidin-3-yl]oxyphenyl]-7-[2-fluoro-4-(trifluoromethoxy)phenyl]-5,6-dihydronaphthalen-2-ol], the IC50 in assay [1] (Homo sapiens, MCF7, 168 h) was 85 nM; in assay [2] (Homo sapiens, MCF7, 168 h), more than 999 nM; in assay [4] (Homo sapiens, MCF7, 168 h), 29 nM; in assay [5] (setting [8]) it was more than 4000 nM; in assay [6] (setting [8]), 1270 nM; in assay [7] (setting [8]), more than 4000 nM. In assay [3], the DC50 was found to be 15 nM. The “% Degradation at 3 μM” value in assay [3] came to 78%.

With `CC(C)(C)c1ccc(C2=C(c3ccc(O[C@H]4CCN(CCCF)C4)cc3)c3cc(O)ccc3CC2)cc1` [Example 11, 7-(4-tert-butylphenyl)-8-[4-[(3S)-1-(3-fluoropropyl)pyrrolidin-3-yl]oxyphenyl]-5,6-dihydronaphthalen-2-ol], the IC50 was 44 nM in assay [1] (Homo sapiens, MCF7, 168 h); more than 999 nM in assay [2] (Homo sapiens, MCF7, 168 h); 162 nM in assay [4] (Homo sapiens, MCF7, 168 h); more than 4000 nM in assay [5] (setting [8]); more than 4000 nM in assay [6] (setting [8]); more than 4000 nM in assay [7] (setting [8]). In addition, in assay [3], the DC50 is 49 nM. Further, the “% Degradation at 3 μM” value in assay [3] came to 80%.

Consider `Cc1ccc(C2=C(c3ccc(O[C@H]4CCN(CCCF)C4)cc3)c3ccc(O)cc3SC2)c(F)c1` [Example 16, 3-(2-fluoro-4-methyl-phenyl)-4-[4-[(3S)-1-(3-fluoropropyl)pyrrolidin-3-yl]oxyphenyl]-2H-thiochromen-7-ol], for which the IC50 in assay [1] (Homo sapiens, MCF7, 168 h) amounted to 0.9 nM; in assay [2] (Homo sapiens, MCF7, 168 h), 10 nM; in assay [4] (Homo sapiens, MCF7, 168 h) it was 2 nM; in assay [5] (protocol with 3 nM estradiol), 16 nM; in assay [6] (protocol with 3 nM estradiol), 4 nM; in assay [7] (protocol with 3 nM estradiol), 6 nM. Further, the DC50 in assay [3] is 1 nM. Also, the “% Degradation at 3 μM” value in assay [3] is reported as 90%.

For `Cc1cc(C2=C(c3ccc(O[C@H]4CCN(CCCF)C4)cc3)c3ccc(O)cc3SC2)ccc1Cl` [Example 17, 3-(4-chloro-3-methyl-phenyl)-4-[4-[(3S)-1-(3-fluoropropyl)pyrrolidin-3-yl]oxyphenyl]-2H-thiochromen-7-ol], the IC50 in assay [1] (Homo sapiens, MCF7, 168 h) was determined as 0.4 nM; in assay [2] (Homo sapiens, MCF7, 168 h), 3 nM; in assay [4] (Homo sapiens, MCF7, 168 h), 1 nM; in assay [5] (protocol with 3 nM estradiol), 39 nM; in assay [6] (protocol with 3 nM estradiol) it was 7 nM; in assay [7] (protocol with 3 nM estradiol), 14 nM. Moreover, in assay [3], the DC50 was 2 nM. Further, the “% Degradation at 3 μM” value in assay [3] is 87%.

The values are drawn from patent US11149031B2, “Substituted N-(3-fluoropropyl)-pyrrolidine compounds, processes for their preparation and therapeutic uses thereof” (SANOFI, priority 2016, dated 2021).
